Test results taken from patent US4818770A, “Prevention of a plant disease by specific inhibition of fungal polyamine biosynthesis” (priority 1986, dated 1989).
Where “and” joins values, the source holds several entries; their conditions need not be identical. Equal values may be shown once. Entries after “also recorded” stand apart in the source; their conditions may differ. Read-outs that look alike come from different tables or passages of the source.

Assays:
[1] = system: Uromyces phaseoli; experiment: Bean rust lesions on unifoliolate leaves of Pinto bean sprayed before or after inoculation; assay type: in vivo
[2] = system: bean plants (Phaseolus vulgaris cv Pinto); experiment: Effect of sprays on growth and appearance of bean plants; assay type: in vivo
Experimental: Unifoliolate leaves of 10-day-old bean seedlings were sprayed (400 ul per leaf) with DFMO or alpha-difluoromethylarginine (DFMA) at concentrations of 0.01-5 mM, before or after inoculation with uredospores of the bean rust, Uromyces phaseoli, Race 0. The inhibitor solutions were prepared in 0.01% Tween 20, with the pH adjusted to 7.0. Control plants without inhibitor were sprayed similarly and were allowed to dry before inoculation with the pathogen. After inoculation with rust uredospores (25 mg/100 ml of 0.01% Tween 20) all plants were placed in dew chambers (100% relative humidity) for 16 hours at 19° C. in total darkness. After exposures to inhibitors and uredospores, all plants were returned to the greenhouse and arranged randomly. Disease severity was evaluated 7 days after inoculation by counting foliar lesions. In control plants and those treated with low concentrations of DFMO, uredospores were collected randomly from each treatment to determine percent germination and pathogenicity. For determination of germination, spores were dusted onto Petri plates containing 10 mM 2-(N-morpholino)ethanesulfonic acid (Mes) at pH 7.0, 3 mM CaCl2, 2 mM MgSO4, and 1% purified agar, and incubated for 3 hr at 19° C. in the light.

[3] = system: Verticillium dahliae; experiment: Radial mycelial growth of Verticillium dahliae in vitro; assay type: cell-based; conditions: for minimal effective concentration: Verticillium dahliae, in vitro
[4] = system: Verticillium dahliae; experiment: Verticillium wilt symptoms in Bonny Best tomato after foliar spray; assay type: in vivo
[5] = system: P. recondita f. sp. tritici; assay type: in vivo, Puccinia recondita f. sp. tritici
[6] = system: PA titers of bean leaves; experiment: Polyamine titers in leaves of sprayed bean plants; assay type: in vivo, Phaseolus vulgaris
Experimental: PA analysis was performed on leaf samples collected from inhibitor-sprayed bean plants. Leaf samples were ground in prechilled mortars with 10% (w/v) HClO4 at a ratio of 200 mg fresh weight leaf per ml HClO4. Homogenates were centrifuged at 26,00 g for 20 minutes at 4° C. The clear supernatant fractions were used for dansylation according to a procedure previously described. Briefly, 0.4 ml of freshly prepared dansyl (Diaminonaphthylsulfonyl)-C1 (Sigma), 5 mg/ml in acetone, and 0.2 ml of saturated Na2 CO3 were added to 0.2 ml of the supernatant fraction. The dansylated PA were extracted with 0.25 ml benzene and the clear benzene layer was used for PA determinations by TLC on LK6D high resolution silica gel plates (Whatman). After development in chloroform:triethylamine (25:2 v/v) for about 1 hour and location by fluorescence under a UV lamp, the dansylpolyamine bands were scraped off, eluted in 4 ml of ethyl acetate and quantified with an Aminco-Bowman fluorimeter.
The effect of DFMO and DFMA sprays (0.01, 0.1, and 1.0 mM) on PA titers was also examined. Unifoliolate leaves were sprayed in the usual way and examined 1 and 3 days later, while the first trifolioloate leaves, unexpanded ata the time of spray and themselves unsprayed, were examined 8 days later.

[7] = system: Puccinia graminis fsp avenae; assay type: in vivo
[8] = system: Puccinia sorghi; experiment: Infection by corn rust; assay type: in vivo
[9] = system: Podosphaera leucotricha; experiment: Infection of apple by powdery mildew; assay type: in vivo; conditions: 5 mM
[10] = system: bean rust uredospores; experiment: Germination and differentiation of bean rust uredospores in agar; assay type: cell-based, Uromyces phaseoli; conditions: for inhibition at 100 µM / inhibition at 500 µM / inhibition at 1000 µM / inhibition at 5000 µM: Uromyces phaseoli
[11] = system: Erysiphe polygoni; experiment: Infection by bean powdery mildew; assay type: in vivo
[12] = system: Botrytis sp., B. cinerea, Rhizoctonia solani, Monilinia fructicola; conditions: Botrytis sp., B. cinerea, Rhizoctonia solani, Monilinia fructicola; cited from earlier work
[13] = system: Erysiphe graminis; experiment: Wheat powdery mildew infection, colonies per plant
Experimental: With wheat powdery mildew (E. graminis) 10-day-old seedlings were sprayed with solutions of DFMA or DFMO from 0.01 to 5.0 mM before and after inoculation of the plants with conidia. Inoculation occurred naturally in the greenhouse by distributing infected plants among the experimental plants for 24 hours. Infection was evaluated 10 days after inoculation by counting mildew colonies.

[14] = system: Colletotrichum lagenarium; experiment: Infection of National Pickling cucumber plants by cucumber anthracnose
[15] = postinoculation exposure, inhibitor 0.01 mM
[16] = postinoculation exposure, inhibitor 0.025 mM
[17] = postinoculation exposure, inhibitor 0.05 mM
[18] = postinoculation exposure, inhibitor 0.075 mM
[19] = postinoculation exposure, inhibitor 0.10 mM
[20] = postinoculation exposure, inhibitor 0.25 mM
[21] = postinoculation exposure, inhibitor 0.50 mM
[22] = postinoculation exposure, inhibitor 1.0 mM
[23] = postinoculation exposure, inhibitor 5.0 mM
[24] = preinoculation exposure, inhibitor 0.01 mM
[25] = preinoculation exposure, inhibitor 0.025 mM
[26] = preinoculation exposure, inhibitor 0.05 mM
[27] = preinoculation exposure, inhibitor 0.075 mM
[28] = preinoculation exposure, inhibitor 0.10 mM
[29] = preinoculation exposure, inhibitor 0.25 mM
[30] = preinoculation exposure, inhibitor 0.50 mM
[31] = preinoculation exposure, inhibitor 1.0 mM
[32] = preinoculation exposure, inhibitor 5.0 mM

Structure (SMILES): NCCCC(N)(C(=O)O)C(F)F (racemic) [DFMO, DL-alpha-difluorimethylornithine]
- protection against infection ([1]; 400 ul of 0.25 mM applied to a single leaf): complete protection
- disease symptoms / protection against bean rust ([1]; DFMO at 0.5 mM or higher, pre- and postinoculation, 400 ul per leaf): No disease symptoms could be detected; also recorded: complete protection
- germination or pathogenicity of uredospores collected from treated plants ([1]; plants treated with low concentrations): no decrease in germination or pathogenicity
- delay of uredial appearance ([1]; postinoculation exposure, lower concentrations, dose-dependent): 2 to 6 days
- Lesions per cm^2 [1, 15]: 40 ± 5 per cm^2
- Lesions per leaf [1, 15]: 1888 ± 249 per leaf
- Lesions per cm^2 [1, 16]: 28 ± 2 per cm^2
- Lesions per leaf [1, 16]: 1526 ± 160 per leaf
- Lesions per cm^2 [1, 17]: 17 ± 2 per cm^2
- Lesions per leaf [1, 17]: 1026 ± 131 per leaf
- Lesions per cm^2 [1, 18]: 12 ± 1 per cm^2
- Lesions per leaf [1, 18]: 669 ± 96 per leaf
- Lesions per cm^2 [1, 19]: 5 ± 1 per cm^2
- Lesions per leaf [1, 19]: 221 ± 39 per leaf
- Lesions per cm^2 [1, 20]: 2 ± 1 per cm^2
- Lesions per leaf [1, 20]: 73 ± 4 per leaf
- Lesions per cm^2 [1, 21]: 0 per cm^2
- Lesions per leaf [1, 21]: 0 per leaf
- Lesions per cm^2 [1, 22]: 0 per cm^2
- Lesions per leaf [1, 22]: 0 per leaf
- Lesions per cm^2 [1, 23]: 0 per cm^2
- Lesions per leaf [1, 23]: 0 per leaf
- Lesions per cm^2 [1, 24]: 47 ± 6 per cm^2
- Lesions per leaf [1, 24]: 2677 ± 397 per leaf
- Lesions per cm^2 [1, 25]: 34 ± 1 per cm^2
- Lesions per leaf [1, 25]: 2071 ± 103 per leaf
- Lesions per cm^2 [1, 26]: 29 ± 4 per cm^2
- Lesions per leaf [1, 26]: 1712 ± 375 per leaf
- Lesions per cm^2 [1, 27]: 19 ± 2 per cm^2
- Lesions per leaf [1, 27]: 1177 ± 159 per leaf
- Lesions per cm^2 [1, 28]: 14 ± 2 per cm^2
- Lesions per leaf [1, 28]: 659 ± 104 per leaf
- Lesions per cm^2 [1, 29]: 2 ± 1 per cm^2
- Lesions per leaf [1, 29]: 85 ± 20 per leaf
- Lesions per cm^2 [1, 30]: 0 per cm^2
- Lesions per leaf [1, 30]: 0 per leaf
- Lesions per cm^2 [1, 31]: 0 per cm^2
- Lesions per leaf [1, 31]: 0 per leaf
- Lesions per cm^2 [1, 32]: 0 per cm^2
- Lesions per leaf [1, 32]: 0 per leaf
- appearance, growth and development of sprayed bean plants ([2]; all concentrations, as high as 5 mM): looked healthy, exhibiting no malformation or reduction in growth rate; also recorded: no apparent effect on growth and development of the plant
- growth of the bean plants ([2]; sprays 0.01, 0.1 and 1.0 mM): no effect
- minimal effective concentration ([3]; 192 h, 8 days, read-out: concentration reducing radial (mycelial) growth): ≥ 5 µM
- minimal effective concentration ([3]; read-out: concentration inhibiting pigment synthesis): ≥ 500 µM
- effect of 1 mM putrescine on DFMO-induced growth inhibition ([3]; putrescine added to culture medium): reversed
- symptoms of Verticillium wilt compared to controls ([4]; 2.5 mM and 10 mM, 24 hours after inoculation): suppressed symptoms
- most effective time for application ([4]; 5 mM DFMO, symptoms 21 days after inoculation): 24-48 hours post-inoculation
- delay of onset of symptom expression ([4]; increasing concentration from 2.5 to 10 mM): up to 7 days
- wilt symptoms ([4]; spores applied to the soil, DFMO applied to the leaves): greatly suppressed
- % control ([5]; 0.01 mM): 45% and 60%
- Uredia/plant ([5]; 0.01 mM): 44 Uredia/plant and 32 Uredia/plant
- % control ([5]; 0.025 mM): 51% and 66%
- Uredia/plant ([5]; 0.025 mM): 39 Uredia/plant and 27 Uredia/plant
- % control ([5]; 0.13 mM): 55% and 90%
- % control ([5]; 0.16 mM): 52% and 92%
- % control ([5]; 0.20 mM): 65% and 95%
- % control ([5]; 1.00 mM): 72% and 100%
- % control ([5]; in vivo): 52% and 82%
- Put and Spd titers ([6]; highest concentration of DFMO): increased
- PA levels in treated leaves ([6]; sprays 0.01, 0.1 and 1.0 mM, 1, 3 and 8 days later): no significant reductions
- Percent control ([7]; 0.01 mM): 50.7% and 50%
- Percent control ([7]; 0.025 mM): 63.2%
- Percent control ([7]; 0.065 mM): 65.5%
- Percent control ([7]; 0.10 mM): 71.0%
- Percent control ([7]; 0.13 mM): 67.9%
- Percent control ([7]; 0.16 mM): 77.3%
- Percent control ([8]; 0.01 mM): 43.5%
- Percent control ([8]; 0.025 mM): 38.4%
- Percent control ([8]; 0.065 mM): 37.4%
- Percent control ([8]; 0.10 mM): 63.1%
- Percent control ([8]; 0.13 mM): 67.7%
- Percent control ([8]; 0.16 mM): 88.7% and ~90%
- Percent control ([8]; 0.20 mM): 88.4%
- Percent control ([8]; 1.00 mM): 94.9%
- EC50 ([8]; Puccinia sorghi, read-out: concentration providing 50% protection against corn rust): < 100 µM
- Percent control [9]: 48.6%
- Differentiation % ([10]; 0.1 mM): 46%
- Germination % ([10]; 0.1 mM): 32%
- Differentiation % ([10]; 0.5 mM): 35%
- Germination % ([10]; 0.5 mM): 32%
- Differentiation % ([10]; 1.0 mM): 30%
- Germination % ([10]; 1.0 mM): 32%
- Differentiation % ([10]; 5.0 mM): 19%
- Germination % ([10]; 5.0 mM): 22%
- inhibition at 100 µM ([10]; 0.1 mM, read-out: Differentiation % Inhibiton): 22%
- inhibition at 100 µM ([10]; 0.1 mM, read-out: Germination % Inhibition): 24%
- inhibition at 500 µM ([10]; 0.5 mM, read-out: Differentiation % Inhibiton): 41%
- inhibition at 500 µM ([10]; 0.5 mM, read-out: Germination % Inhibition): 24%
- inhibition at 1000 µM ([10]; 1.0 mM, read-out: Differentiation % Inhibiton): 49%
- inhibition at 1000 µM ([10]; 1.0 mM, read-out: Germination % Inhibition): 24%
- inhibition at 5000 µM ([10]; 5.0 mM, read-out: Differentiation % Inhibiton): 68%
- inhibition at 5000 µM ([10]; 5.0 mM, read-out: Germination % Inhibition): 48%
- Percent control ([11]; 5 mM): 45%
- Percent control ([11]; 10 mM): 52% and ~50%
- mycelial growth in vitro [12]: inhibited mycelial growth
- % control ([13]; post-inoculation, 0.01 mM): 19%
- Colonies/plant ([13]; post-inoculation, 0.01 mM): 30 Colonies/plant
- % control ([13]; post-inoculation, 0.025 mM): 30%
- Colonies/plant ([13]; post-inoculation, 0.025 mM): 26 Colonies/plant
- % control ([13]; post-inoculation, 0.065 mM): 46%
- Colonies/plant ([13]; post-inoculation, 0.065 mM): 20 Colonies/plant
- % control ([13]; post-inoculation, 0.10 mM): 68%
- Colonies/plant ([13]; post-inoculation, 0.10 mM): 12 Colonies/plant
- % control ([13]; post-inoculation, 0.20 mM): 68%
- Colonies/plant ([13]; post-inoculation, 0.20 mM): 12 Colonies/plant
- % control ([13]; post-inoculation, 1.00 mM): 76%
- Colonies/plant ([13]; post-inoculation, 1.00 mM): 9 Colonies/plant
- % control ([13]; post-inoculation, 5.00 mM): 89%
- Colonies/plant ([13]; post-inoculation, 5.00 mM): 4 Colonies/plant
- % control ([13]; pre-inoculation, 0.01 mM): 41%
- Colonies/plant ([13]; pre-inoculation, 0.01 mM): 22 Colonies/plant
- % control ([13]; pre-inoculation, 0.025 mM): 35%
- Colonies/plant ([13]; pre-inoculation, 0.025 mM): 24 Colonies/plant
- % control ([13]; pre-inoculation, 0.065 mM): 46%
- Colonies/plant ([13]; pre-inoculation, 0.065 mM): 20 Colonies/plant
- % control ([13]; pre-inoculation, 0.10 mM): 51%
- Colonies/plant ([13]; pre-inoculation, 0.10 mM): 18 Colonies/plant
- % control ([13]; pre-inoculation, 0.20 mM): 46%
- Colonies/plant ([13]; pre-inoculation, 0.20 mM): 20 Colonies/plant
- % control ([13]; pre-inoculation, 1.00 mM): 66%
- Colonies/plant ([13]; pre-inoculation, 1.00 mM): 13 Colonies/plant
- % control ([13]; pre-inoculation, 5.00 mM): 95%
- Colonies/plant ([13]; pre-inoculation, 5.00 mM): 2 Colonies/plant
- Lesions per plant ([14]; 1.0 mM): 69 per plant
- Percent control ([14]; 1.0 mM): 14%
- Lesions per plant ([14]; 5.0 mM): 69 per plant
- Percent control ([14]; 5.0 mM): 14%
- Lesions per plant ([14]; 10.0 mM): 70 per plant
- Percent control ([14]; 10.0 mM): 14%
